Source: patent publication US20220000871A1, “METHODS AND COMPOSITIONS FOR TREATING NEURODEGENERATIVE DISEASES USING MODULATORS OF PHOSPHOGLYCERATE KINASE 1 (PGK1) ACTIVITY” (UNIVERSITY OF IOWA RESEARCH FOUNDATION, priority 2019, published 2022)

Key:
MPTP-treated mice = experiment: MPTP mouse model; assay type: in vivo
Protocol: A) Schematic for experiments in panels B-K. C57BL/6 mice (8 week-old) received 4 i.p. injections of MPTP (20 mg/kg at 2 hr intervals) or vehicle on day 0. […] N=6. […] Quantification of TH protein normalized to control (C,D). N=6. E-G) Example of immunostaining of TH in SNc and striatum (E, scale bars, 500 μm SNc, 1 mm striatum). Quantification of TH-positive neurons in SNc (F) and TH intensity in the striatum (G). N=6. H,I) Dopamine (DA) content in striatum and SnC. N=6. J) Percentage of TH-positive neurons that were positive for TUNEL staining. N=6. K) Behavioral response of mice in rotarod test. Data are duration that mice remained on an accelerated rolling rod normalized to mice at day 0. N=8. Data are examples and mean±SEM. […] Statistical analysis at day 7 and day 14 was Mann-Whitney. In the figure, *p<0.05, **p<0.01.
FIG. 10. […] A) Schematic of experiments in panels B-F. C57BL/6 mice (8 week-old) received 4 i.p. injections of MPTP (20 mg/kg at 2 hr intervals) or vehicle on day 0. […] B,C) Pyruvate and ATP levels in mouse SNc. N=6. D) Mitochondrial DNA (mDNA, 16S and ND1) relative to nuclear DNA (nDNA, intron β-globin) by quantitative PCR of mouse striatum and SNc. N=3. E,F) VDAC (E) and PHB1 (F) protein levels in striatum and SNc assayed by western blot and normalized to control. N=6.
FIG. 12. […] A) Schematic for experiments in panels B-J. C57BL/6 mice (8 week-old) received 4 i.p. injections of MPTP (20 mg/kg at 2 hr intervals) or vehicle on day 0. […] B) Example of TH immunostaining in the SNc on days 7 and 14. Scale bar, 500 μm. C-F) Measurement of DOPAC in mouse striatum (C) and SNc (D) and measurement of HVA in striatum (E) and SNc (F). (N=6). G) Example of TH and TUNEL co-staining in the SNc. TH (green), TUNEL (red), and DAPI (nuclei, blue). Scale bar, 25 μm. Quantitative data are in FIG. 2J. H) Left panels are Nissl staining of neurons in the striatum. Samples were obtained 7 days after MPTP injection. Right panels show the quantification. […] Scale bar, 400 μm. N=3 per group. I,J) Behavioral response of mice in the pole test. (I) Time mice took to turn their heads from upward to downward. (J) Time mice took to climb down the pole. N=8.
MPTP was injected (i.p.) on one day at 20 mg/kg for four times at 2-hour intervals, as previously described (4). […] At the end of the drug or saline treatment, behavioral tests including rotarod test and pole test were carried out before the animals were sacrificed.
The rotarod test was carried out using an automated rotarod (E103, UGO BASILE). At a fixed speed of 15 revolutions per minute (rpm), mice were pre-trained for two consecutive days until they were able to remain on the rod for more than 60 seconds. […] The latency to fall was recorded for a maximum recording time of 600 seconds. The behavior was monitored by a video camera.
This test was carried out by leaving a pole in the cage where the mice were housed. The pole test was performed on the 14th day after MPTP injection as previously described (9). The mouse was placed in a head-upward position on top of a vertical pole (diameter 8 mm, height 55 cm) with a ball (diameter 2.5 cm) on the head of the pole. The pole was wrapped with the nylon gauze to prevent the mouse from slipping down. Each mouse was trained twice before testing. The time that the mouse took to turn his head from upward to downward (Time: Turn) and the time the mouse took to reach the floor with his forepaws (Time: Locomotion Activity) were recorded. Each mouse was tested three times with 5 min. intervals, and the average time was quantified.

[1] = tested on: M17 human neuroblastoma cells; experiment: Glycolysis and mitochondrial function in M17 cells
Protocol: Cells were incubated with mild hypoxia for 12 hr before study. Cells were cultured in a sealed chamber (Stemcell Technologies Vancouver, Canada) that was flushed with a humidified gas mixture composed of 5% 02, 5% carbon dioxide (CO2), and 90% nitrogen (N2) for 12 hr. […] Assays of ATP, pyruvate, and citrate synthase activities (CS) were performed according to the manufacturer's instructions.
A Seahorse XV analyzer (XF^e-24, Seahorse Bioscience, Billerica, Mass., USA) was used to measure the oxygen consumption rate (OCR) and the extracellular acidification rate (ECAR) as previously described (18). The M17 cells and iPS cells were seeded in XF^e 24-well plates (Seahorse Bioscience), while the plates used for iPS cells were poly-D-lysine pre-coated. Assay medium was prepared by supplementing Seahorse XF^eBaseMedium minimal DMEM (Seahorse Bioscience) with 2 mM L-glutamine for a Glycolysis Stress Test assay or 2 mM L-glutamine, 1 mM pyruvate and 10 mM glucose for a Mito Stress Test assay (Sigma). pH was adjusted to 7.4 at 37° C. Probes (Seahorse Bioscience) were hydrated in the calibrant (Seahorse Bioscience) in a non-CO2 incubator at 37° C. overnight. Cells were washed twice with assay medium and kept in a non-CO2 incubator at 37° C. for 1 hr before analysis. Glucose, oligomycin and 2-deoxy-glucose (2-DG) were pre-loaded in the probe plate for Glycolysis Stress Test, while oligomycin, FCCP and a mixture of rotenone and antimycin A were used for Mito Stress Test.
Citrate synthase (CS) activity, LDH assay and pyruvate level were detected using commercial kits according to the manufacturer's directions. ATP content in animal tissues and M17 cells were detected with the ATP assay kit following the manufacturer's directions.

[2] = MPTP 20 mg/kg x4, TZ 10 μg/kg daily, day 7
[3] = TZ begun at time of MPTP, day 7

| Structure (SMILES) | ATP levels after MPTP (MPTP-treated mice; [2]) | pyruvate levels after MPTP (MPTP-treated mice; [2]) | MPTP-induced defects (TH levels, TH-positive cells, TH immunostaining, dopamine, DOPAC, HVA content, TUNEL-positive TH cells) (MPTP-treated mice; [3]) | motor function (rotarod, pole test) (MPTP-treated mice; [3]) | MPTP-induced abnormalities (TH, dopamine, DOPAC, HVA, TUNEL) (MPTP-treated mice; TZ delayed for 7 days after MPTP, day 14) | motor performance (rotarod, pole test) (MPTP-treated mice; delayed TZ administration, day 14) | glycolysis and mitochondrial function ([1]; TZ 10 μM, 24 hr) | tyrosine hydroxylase levels in MPTP-treated mice (MPTP-treated mice; SNc, western blot, FIG. 17B) | glycolysis ([1]; in vitro, 10 μM, 24 hr (ECAR)) |
| --- | --- | --- | --- | --- | --- | --- | --- | --- | --- |
| COc1cc2nc(N3CCN(C(=O)C4CCCO4)CC3)nc(N)c2cc1OC (stereo not drawn) [TZ, terazosin] | prevented the fall | prevented the fall | attenuated all these defects | prevented deficits | improved the abnormalities | improved | enhances | – | – |
| CCOc1ccccc1OCCN[C@H](C)Cc1ccc(OC)c(S(N)(=O)=O)c1 [tamsulosin] | – | – | – | – | – | – | – | did not rescue | does not enhance |
